The results in this text go back to BindingDB's records for doi:10.1021/jm00106a035 (University of Maryland, 1991).

The structures appear in SMILES notation.

Experiment [1] can be described thus: In vitro inhibitory activity towards [3H]cocaine binding to rat striatal tissue.
Test in experiment [2]: as above
This is another data set of the same source.

Broadly, the IC50 is the point on the concentration scale where inhibition reaches its midpoint. In experiment [1], `COC(=O)C1C2CC[C@H](C[C@@H]1OC(=O)Nc1ccccc1)N2C` (stereo not given in full) gave an IC50 of 5600 nM. Same read-out and setting: as for `COC(=O)C1C2CC[C@H](C[C@@H]1OC(=O)Nc1cccc(N)c1)N2C` (stereo not given in full), the figure is 2070 nM; as for `COC(=O)C1C2CC[C@H](C[C@@H]1OC(=O)Nc1ccc([N+](=O)[O-])cc1)N2C` (stereo not given in full), 1090 nM. Still for that read-out and setting: to `COC(=O)C1C2CC[C@H](C[C@@H]1OC(=O)Nc1cccc([N+](=O)[O-])c1)N2C` (stereo not given in full) belongs 37 nM.

In experiment [2], `COC(=O)[C@H]1[C@@H](OC(=O)c2ccccc2)C[C@@H]2CC[C@H]1N2C` [Cocaine (-)] displayed an IC50 of 65 nM. This lies in the double-digit nanomolar range.
